Assay results as given in PubChem BioAssay AID248 (DTP/NCI, 2004).
Values joined by “and” are separate entries in the source; they are usually repeats but may differ in a detail not shown here. Equal values may be shown once. Toxic doses and inconclusive results are not listed. Rule as the data show it: active = T/C of 150% or more; inactive = T/C below 125%.

System: L1210 leukemia ip in BDF1 mice, survival T/C
Experiment: NCI In Vivo Anticancer Drug Screen. Data for tumor model L1210 Leukemia (intraperitoneal) in B6D2F1 (BDF1) mice
Conditions: endpoint: mean survival time, higher = longer survival
Summary of the method: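 Ratio derived from survival: compound-dosed mice over vehicle-dosed mice, all bearing a transplantable tumor.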

[1] = dose: 100.0 mg/kg/injection, schedule: Q04DX003 (ip), vehicle: Klucel (hydroxypropylcellulose) (HPC)
[2] = dose: 200.0 mg/kg/injection, schedule: Q04DX003 (ip), vehicle: Klucel (hydroxypropylcellulose) (HPC)
[3] = dose: 400.0 mg/kg/injection, schedule: Q04DX003 (ip), vehicle: Klucel (hydroxypropylcellulose) (HPC)
[4] = dose: 100.0 mg/kg/injection, schedule: Q01DX009 (ip), vehicle: Klucel (hydroxypropylcellulose) (HPC)
[5] = dose: 200.0 mg/kg/injection, schedule: Q01DX009 (ip), vehicle: Klucel (hydroxypropylcellulose) (HPC)
[6] = dose: 400.0 mg/kg/injection, schedule: Q01DX009 (ip), vehicle: Klucel (hydroxypropylcellulose) (HPC)
[7] = dose: 100.0 mg/kg/injection, schedule: Q01DX001 (ip), vehicle: saline
[8] = dose: 200.0 mg/kg/injection, schedule: Q01DX001 (ip), vehicle: saline
[9] = dose: 400.0 mg/kg/injection, schedule: Q01DX001 (ip), vehicle: saline
[10] = dose: 75.0 mg/kg/injection, schedule: Q01DX001 (ip), vehicle: saline
[11] = dose: 150.0 mg/kg/injection, schedule: Q01DX001 (ip), vehicle: saline
[12] = dose: 300.0 mg/kg/injection, schedule: Q01DX001 (ip), vehicle: saline

Measured: T/C

NC(CC(=O)CCl)C(=O)O (stereo not drawn)
inactive: dose: 9.4 mg/kg/injection, schedule: Q01DX009 (ip), vehicle: saline 107 % of control | dose: 18.8 mg/kg/injection, schedule: Q01DX009 (ip), vehicle: saline 102 % of control | dose: 22.0 mg/kg/injection, schedule: Q04DX003 (ip), vehicle: saline 121 % of control | dose: 75.0 mg/kg/injection, schedule: Q01DX001 (ip), vehicle: carboxymethylcellulose (CMC) 121 % of control | dose: 75.0 mg/kg/injection, schedule: Q01DX009 (ip), vehicle: carboxymethylcellulose (CMC) 88 % of control | dose: 150.0 mg/kg/injection, schedule: Q01DX001 (ip), vehicle: carboxymethylcellulose (CMC) 109 % of control

COc1cc(C=O)cc(OC)c1OC
inactive: [1] 93 % of control | [2] 93 % of control | [3] 87 % of control

Cc1ccc(C(C)C)c(OC(=O)NCCCCCCNC(=O)Oc2cc(C)ccc2C(C)C)c1
inactive: [4] 93 % of control | [5] 94 % of control | [6] 98 % of control

O=[N+]([O-])c1ccc(Cl)cc1/C=N/NC(=S)Nc1cccc2cccnc12
inactive: [7] 100 % of control | [8] 103 % of control | [9] 100 % of control

CCCCCC[n+]1ccc(C#N)cc1
inactive: [10] 101 % of control

CC(=O)Nc1ccc2c(c1)Cc1c(F)ccc(F)c1-2
inactive: dose: 50.0 mg/kg/injection, schedule: Q01DX001 (ip), vehicle: carboxymethylcellulose (CMC) 98 % of control | dose: 100.0 mg/kg/injection, schedule: Q01DX001 (ip), vehicle: carboxymethylcellulose (CMC) 91 % of control | dose: 200.0 mg/kg/injection, schedule: Q01DX001 (ip), vehicle: carboxymethylcellulose (CMC) 91 % of control | dose: 400.0 mg/kg/injection, schedule: Q01DX001 (ip), vehicle: carboxymethylcellulose (CMC) 98 % of control

Cc1cccc(C)c1Oc1ccc([N+](=O)[O-])cc1[N+](=O)[O-]
inactive: dose: 100.0 mg/kg/injection, schedule: Q01DX001 (ip), vehicle: Klucel (hydroxypropylcellulose) (HPC) 105 % of control | dose: 200.0 mg/kg/injection, schedule: Q01DX001 (ip), vehicle: Klucel (hydroxypropylcellulose) (HPC) 112 % of control | dose: 400.0 mg/kg/injection, schedule: Q01DX001 (ip), vehicle: Klucel (hydroxypropylcellulose) (HPC) 117 % of control

C1COCOC1
inactive: dose: 50.0 mg/kg/injection, schedule: Q01DX009 (ip), vehicle: acetone 109 % of control | dose: 100.0 mg/kg/injection, schedule: Q01DX009 (ip), vehicle: acetone 106 % of control | dose: 200.0 mg/kg/injection, schedule: Q01DX009 (ip), vehicle: acetone 119 % of control

CCN(CC)CCN(C)c1ccc(CO)c2sc3cc(Cl)ccc3c(=O)c12
inactive: dose: 7.81 mg/kg/injection, schedule: Q01DX009 (ip), vehicle: saline 101 % of control | dose: 15.63 mg/kg/injection, schedule: Q01DX009 (ip), vehicle: saline 101 % of control | dose: 31.25 mg/kg/injection, schedule: Q01DX009 (ip), vehicle: saline 100 % of control | dose: 62.5 mg/kg/injection, schedule: Q01DX009 (ip), vehicle: saline 99 % of control

CCC/C(=C\C(=O)O)CC
inactive: [4] 94 % of control | [1] 93 % of control | [5] 96 % of control | [2] 90 % of control | [6] 96 % of control | [3] 98 % of control

CC(Cl)[N+](=O)[O-] (stereo not drawn)
inactive: dose: 100.0 mg/kg/injection, schedule: Q04DX002 (ip), vehicle: saline with Tween-80 94 % of control | dose: 200.0 mg/kg/injection, schedule: Q04DX002 (ip), vehicle: saline with Tween-80 94 % of control | dose: 400.0 mg/kg/injection, schedule: Q04DX002 (ip), vehicle: saline with Tween-80 98 % of control

C(OC[C@H]1CC[C@@H](COCC2CO2)O1)C1CO1 (stereo partly drawn)
inactive: [7] 112 % of control | dose: 108.0 mg/kg/injection, schedule: Q01DX007 (ip), vehicle: saline 120 % of control | dose: 178.0 mg/kg/injection, schedule: Q01DX001 (ip), vehicle: saline 106 % of control and 110 % of control | [8] 109 % of control | dose: 267.0 mg/kg/injection, schedule: Q01DX001 (ip), vehicle: saline 114 % of control and 115 % of control | [9] 114 % of control | dose: 600.0 mg/kg/injection, schedule: Q01DX001 (ip), vehicle: saline 98 % of control

CC(=O)OCC(=O)[C@@]1(O)[C@H](C)C[C@H]2[C@@H]3C=C(C)C4=Cc5c(cnn5-c5ccc(F)cc5)C[C@]4(C)[C@H]3[C@@H](O)C[C@@]21C
inactive: dose: 0.62 mg/kg/injection, schedule: Q01DX015 (sc), vehicle: steriod suspending solution 120 % of control | dose: 1.25 mg/kg/injection, schedule: Q01DX015 (sc), vehicle: steriod suspending solution 117 % of control | dose: 2.5 mg/kg/injection, schedule: Q01DX015 (sc), vehicle: steriod suspending solution 102 % of control | dose: 5.0 mg/kg/injection, schedule: Q01DX015 (sc), vehicle: steriod suspending solution 117 % of control and 123 % of control | dose: 6.25 mg/kg/injection, schedule: Q01DX009 (sc), vehicle: steriod suspending solution 100 % of control | dose: 10.0 mg/kg/injection, schedule: Q01DX015 (sc), vehicle: steriod suspending solution 111 % of control | dose: 20.0 mg/kg/injection, schedule: Q01DX015 (sc), vehicle: steriod suspending solution 103 % of control | dose: 40.0 mg/kg/injection, schedule: Q01DX015 (sc), vehicle: steriod suspending solution 101 % of control | dose: 50.0 mg/kg/injection, schedule: Q04DX003 (sc), vehicle: steriod suspending solution 110 % of control | dose: 100.0 mg/kg/injection, schedule: Q01DX001 (ip), vehicle: steriod suspending solution 98 % of control | dose: 100.0 mg/kg/injection, schedule: Q04DX003 (sc), vehicle: steriod suspending solution 108 % of control | dose: 160.0 mg/kg/injection, schedule: Q01DX015 (sc), vehicle: steriod suspending solution 91 % of control | dose: 200.0 mg/kg/injection, schedule: Q01DX001 (ip), vehicle: steriod suspending solution 91 % of control | dose: 200.0 mg/kg/injection, schedule: Q04DX003 (sc), vehicle: steriod suspending solution 103 % of control

CN(N=O)C(=O)NCC1OC(n2cnc3c(N)ncnc32)C(O)C1O (stereo not drawn)
inactive: dose: 9.0 mg/kg/injection, schedule: Q01DX001 (ip), vehicle: saline with Tween-80 95 % of control | dose: 13.0 mg/kg/injection, schedule: Q01DX001 (ip), vehicle: saline with Tween-80 98 % of control | dose: 26.0 mg/kg/injection, schedule: Q01DX001 (ip), vehicle: saline with Tween-80 96 % of control | dose: 40.0 mg/kg/injection, schedule: Q01DX001 (ip), vehicle: saline with Tween-80 96 % of control | dose: 60.0 mg/kg/injection, schedule: Q01DX001 (ip), vehicle: saline with Tween-80 98 % of control | dose: 90.0 mg/kg/injection, schedule: Q01DX001 (ip), vehicle: saline with Tween-80 103 % of control | dose: 133.0 mg/kg/injection, schedule: Q01DX001 (ip), vehicle: saline with Tween-80 101 % of control | dose: 200.0 mg/kg/injection, schedule: Q01DX001 (ip), vehicle: saline with Tween-80 106 % of control

C=CCCC1(CCC)C(=O)NC(=O)NC1=O
inactive: [10] 103 % of control | [11] 113 % of control | [12] 101 % of control

S=C(c1ccccc1Cl)N1CCOCC1
inactive: [7] 104 % of control | [8] 102 % of control | [9] 98 % of control

O=C(CCN1CCOCC1)c1ccccc1
inactive: [10] 94 % of control | [11] 89 % of control | [12] 92 % of control

O=C(CCl)NCc1ccc(Cl)c(C(=O)O)c1
inactive: [7] 103 % of control | dose: 100.0 mg/kg/injection, schedule: Q04DX003 (ip), vehicle: saline 98 % of control | [8] 99 % of control | dose: 200.0 mg/kg/injection, schedule: Q04DX003 (ip), vehicle: saline 88 % of control | [9] 89 % of control | dose: 400.0 mg/kg/injection, schedule: Q04DX003 (ip), vehicle: saline 96 % of control

CC(=O)N(NC(=O)c1ccccn1)C(C)=O
inactive: dose: 100.0 mg/kg/injection, schedule: Q01DX001 (ip), vehicle: water 97 % of control | dose: 200.0 mg/kg/injection, schedule: Q01DX001 (ip), vehicle: water 106 % of control

CCSCC1OC(n2cnc3c(N)nc(Cl)nc32)C(O)C1O (stereo not drawn)
inactive: dose: 12.5 mg/kg/injection, schedule: Q01DX001 (ip), vehicle: saline with Tween-80 100 % of control | dose: 25.0 mg/kg/injection, schedule: Q01DX001 (ip), vehicle: saline with Tween-80 100 % of control | dose: 50.0 mg/kg/injection, schedule: Q01DX001 (ip), vehicle: saline with Tween-80 102 % of control
